Data published in US11207296B2, “XPA inhibitor compounds and their use” (INDIANA UNIVERSITY RESEARCH AND TECHNOLOGY CORPORATION, priority 2017, dated 2021).
“And” between values parts separate entries of the source, which are not always exact repeats. Equal entries are not always repeated.

target: full length XPA protein (Homo sapiens, UniProt P23025); experiment: biochemical; details: IC50 (μM), EMSA, 32P labeled 30 bp duplex DNA containing a single 1,2 dGpG cisplatin adduct, several values in a cell = separate determinations
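Note: XPA expressed in Sf9 cells, preincubated with compound on ice before adding DNA, complex resolved on native polyacrylamide gel at 4 °C, PhosphorImager band intensity, binding inhibition versus DMSO.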
Method: Purified XPA (lanes 2-18) was mixed with DMSO (Lane 2, C) control or the indicated compound at a concentration of 50 μM (Lanes 3-18). ^32P labeled ds-platinum damaged DNA was added and incubation continued for 30 minutes on ice. The products were separated on a 6% native gel by electrophoresis at 4° C. Products were detected and quantified by PhosphorImager analysis.
EMSA was carried out using previously described procedure with the following modification. Reactions were performed in volume of 20 μL, containing a ^32P labeled 30 bp duplex DNA containing a single 1,2 dGpG cisplatin adduct. Compounds were pre-incubated on ice with the indicated amount of XPA and products separated by electrophoresis on a non-denaturing 6% polyacrylamide gel. Gels were cooled, loaded and electrophoresis performed at 4° C. Gels were used to expose a Phosphorlmager screen and band intensity determined and % binding and inhibition calculated as we have previously described.

Chain of full length XPA protein (P23025 whole entry): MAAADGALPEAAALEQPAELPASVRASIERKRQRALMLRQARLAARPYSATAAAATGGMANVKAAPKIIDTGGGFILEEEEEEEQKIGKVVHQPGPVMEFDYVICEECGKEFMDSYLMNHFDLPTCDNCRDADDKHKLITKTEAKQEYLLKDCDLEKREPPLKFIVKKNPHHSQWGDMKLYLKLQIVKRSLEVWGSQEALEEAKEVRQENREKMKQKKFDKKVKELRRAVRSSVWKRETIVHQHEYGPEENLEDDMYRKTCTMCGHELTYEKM

IC50	SMILES
40 µM	CC1=NN(c2cccc(C(=O)O)c2)C(=O)/C1=C\c1ccc(-c2ccc(Cl)c(C(=O)NC3CCOCC3)c2)o1 [Compound 34g, (Z)-3-(4-((5-(4-Chloro-3-((tetrahydro-2H-pyran-4-yl)carbamoyl)phenyl)furan-2-yl)methylene)-3-methyl-5-oxo-4,5-dihydro-1H-pyrazol-1-yl)benzoic acid]
35 µM	COc1cccc(NC(=O)c2ccc(/C=C3\C(=O)N(c4cccc(C(=O)O)c4)N=C3C)o2)c1 [NG-02-162/ NG-02-162C, (Z)-3-(4-((5-((3-methoxyphenyl)carbamoyl)furan-2-yl)methylene)-3-methyl-5-oxo-4,5-dihydro-1H-pyrazol-1-yl)benzoic acid]
> 50 µM	COc1cccc(NC(=O)c2cc(-c3ccc(/C=C4\C(=O)N(c5cccc(C(=O)O)c5)N=C4C(F)(F)F)o3)ccc2Cl)c1 [NG-04-312, 3-(4-((5-(4-chloro-3-((3-methoxyphenyl)carbamoyl)phenyl)furan-2-yl)methylene)-5-oxo-3-(trifluoromethyl)-4,5-dihydro-1H-pyrazol-1-yl)benzoic acid]
> 25 µM	CCOC(=O)c1cccc(N2N=C(C)/C(=C/c3ccc(-c4ccc(Cl)c(C(=O)O)c4)o3)C2=O)c1 [Compound 31a, (Z)-2-Chloro-5-(5-((1-(3-(ethoxycarbonyl)phenyl)-3-methyl-5-oxo-1H-pyrazol-4(5H)-ylidene)methyl)furan-2-yl)benzoic acid]
40 µM	O=C(O)c1cccc(N2N=C(C(F)(F)F)C(Cc3ccc(-c4ccc(Cl)c(C(=O)NCC5CC5)c4)o3)C2=O)c1 (stereo not drawn) [NG-04-309, 3-(4-((5-(4-chloro-3-((cyclopropylmethyl)carbamoyl)phenyl)furan-2-yl)methyl)-5-oxo-3-(trifluoromethyl)-4,5-dihydro-1H-pyrazol-1-yl)benzoic acid]
> 25 µM	CCOC(=O)c1cccc(N2N=C(C)/C(=C/c3ccc(-c4ccc(Cl)c(C(=O)NCc5ccc(F)cc5)c4)o3)C2=O)c1 [Compound 33a, (Z)-Ethyl 3-(4-((5-(4-chloro-3-((4-fluorobenzyl)carbamoyl)phenyl)furan-2-yl)methylene)-3-methyl-5-oxo-4,5-dihydro-1H-pyrazol-1-yl)benzoate]
12 µM	CC1=NN(c2ccc(C(=O)O)cc2)C(=O)/C1=C\c1ccc(-c2ccc(Cl)c(C(=O)O)c2)s1 [NG-03-234, (Z)-5-(5-((1-(4-Carboxyphenyl)-3-methyl-5-oxo-1,5-dihydro-4H-pyrazol-4-ylidene)methyl)thiophen-2-yl)-2-chlorobenzoic acid]
40 µM	CC1=NN(c2cccc(C(=O)O)c2)C(=O)/C1=C\c1ccc(-c2ccc(Cl)c(C(=O)NCc3ccccc3Cl)c2)o1 [NG-03-271, (Z)-3-(4-((5-(4-chloro-3-((2-chlorobenzyl)carbamoyl)phenyl)furan-2-yl)methylene)-3-methyl-5-oxo-4,5-dihydro-1H-pyrazol-1-yl)benzoic acid]
36 µM	CC1=NN(c2cccc(C(=O)O)c2)C(=O)/C1=C\c1ccc(-c2ccc(Cl)c(C(=O)NCc3ccccc3)c2)o1 [NG-03-270, (Z)-3-(4-((5-(3-(Benzylcarbamoyl)-4-chlorophenyl)furan-2-yl)methylene)-3-methyl-5-oxo-4,5-dihydro-1H-pyrazol-1-yl)benzoic acid]
38 µM	COc1cccc(CNC(=O)c2cc(-c3ccc(/C=C4\C(=O)N(c5ccc(C(=O)O)cc5)N=C4C)o3)ccc2Cl)c1 [NG-03-286, (Z)-4-(4-((5-(4-Chloro-3-((3-methoxybenzyl)carbamoyl)phenyl)furan-2-yl)methylene)-3-methyl-5-oxo-4,5-dihydro-1H-pyrazol-1-yl)benzoic acid]
40 µM	COc1cccc(CNC(=O)c2cc(-c3ccc(CC4C(=O)N(c5ccc(C(=O)O)cc5)N=C4C)o3)ccc2Cl)c1 (stereo not drawn) [NG-04-294, 4-(4-((5-(4-chloro-3-((3-methoxybenzyl)carbamoyl)phenyl)furan-2-yl)methyl)-3-methyl-5-oxo-4,5-dihydro-1H-pyrazol-1-yl)benzoic acid]
45 µM	COc1cccc(NC(=O)c2cc(-c3ccc(CC4C(=O)N(c5ccc(C(=O)O)cc5)N=C4C)s3)ccc2Cl)c1 (stereo not drawn) [NG-03-238, 4-(4-((5-(4-Chloro-3-((3-methoxyphenyl)carbamoyl)phenyl)thiophen-2-yl)methyl)-3-methyl-5-oxo-4,5-dihydro-1H-pyrazol-1-yl)benzoic acid]
7 µM	CC1=NN(c2cccc(C(=O)O)c2)C(=O)/C1=C\c1ccc(-c2ccc(Cl)c(C(=O)NCc3ccc(F)cc3)c2)s1 [NG-03-227, (Z)-3-(4-((5-(4-Chloro-3-((4-fluorobenzyl)carbamoyl)phenyl)thiophen-2-yl)methylene)-3-methyl-5-oxo-4,5-dihydro-1H-pyrazol-1-yl)benzoic acid]
3 µM	C=CCCCc1cccc(-c2ccc(/C=C3/C=NN(c4cccc(C(=O)O)c4)C3=O)o2)c1 [Compound 2922]
30 µM	COc1cccc(NC(=O)c2cc(-c3ccc(CC4C(=O)N(c5cccc(C(=O)O)c5)N=C4C(F)(F)F)o3)ccc2Cl)c1 (stereo not drawn) [NG-04-322, 3-(4-((5-(4-chloro-3-((3-methoxyphenyl)carbamoyl)phenyl)furan-2-yl)methyl)-5-oxo-3-(trifluoromethyl)-4,5-dihydro-1H-pyrazol-1-yl)benzoic acid]
42 µM	CC1=NN(c2cccc(C(=O)O)c2)C(=O)C1Cc1ccc(-c2ccc(Cl)c(C(=O)NCC3CC3)c2)o1 (stereo not drawn) [NG-01-72R, 3-(4-((5-(4-Chloro-3-((cyclopropylmethyl)carbamoyl)phenyl)furan-2-yl)methyl)-3-methyl-5-oxo-4,5-dihydro-1H-pyrazol-1-yl)benzoic acid]
45 µM	CCOC(=O)c1cccc(N2N=C(C)C(=Cc3ccc(C(=O)O)o3)C2=O)c1 [NG-02-154, 5-((1-(3-(ethoxycarbonyl)phenyl)-3-methyl-5-oxo-1,5-dihydro-4H-pyrazol-4-ylidene)methyl)furan-2-carboxylic acid]
2.5 µM	CC1=NN(c2cccc(C(=O)O)c2)C(=O)/C1=C\c1ccc(-c2ccc(Cl)c(C(=O)COc3ccccc3Cl)c2)o1 [Compound 2249]
3 µM	CC1=NN(c2cccc(C(=O)O)c2)C(=O)/C1=C\c1ccc(-c2cccc(C(=O)OC(C)C)c2)o1 [Compound 3125]
40 µM	CC1=NN(c2cccc(C(=O)O)c2)C(=O)C1Cc1ccc(-c2ccc(Cl)c(C(=O)NCC3CC3)c2)s1 (stereo not drawn) [NG-03-231, 3-(4-((5-(4-Chloro-3-((cyclopropylmethyl)carbamoyl)phenyl)thiophen-2-yl)methyl)-3-methyl-5-oxo-4,5-dihydro-1H-pyrazol-1-yl)benzoic acid]
15 µM	O=C(O)c1cccc(N2N=C(C(F)(F)F)/C(=C/c3ccc(-c4ccc(Cl)c(C(=O)O)c4)o3)C2=O)c1 [NG-04-314, 5-(5-((1-(3-carboxyphenyl)-5-oxo-3-(trifluoromethyl)-1,5-dihydro-4H-pyrazol-4-ylidene)methyl)furan-2-yl)-2-chlorobenzoic acid]
11 µM	COc1ccc(NC(=O)c2cc(-c3ccc(CC4C(=O)N(c5cccc(C(=O)O)c5)N=C4C)o3)ccc2Cl)cc1OC (stereo not drawn) [NG-03-206, 3-(4-((5-(4-Chloro-3-((3,4-dimethoxyphenyl)carbamoyl)phenyl)furan-2-yl)methyl)-3-methyl-5-oxo-4,5-dihydro-1H-pyrazol-1-yl)benzoic acid]
> 25 µM	CC1=NN(c2cccc(C(=O)O)c2)C(=O)C1Cc1ccc(-c2ccc(Cl)c(C(=O)NCc3ccc(F)cc3)c2)o1 (stereo not drawn) [NG-01-65, 3-(4-((5-(4-Chloro-3-((4-fluorobenzyl)carbamoyl)phenyl)furan-2-yl)methyl)-3-methyl-5-oxo-4,5-dihydro-1H-pyrazol-1-yl)benzoic acid]
32 µM	CC1=NN(c2cccc(C(=O)O)c2)C(=O)/C1=C\c1ccc(-c2ccc(Cl)c(C(=O)NC3CC3)c2)o1 [Compound 34f, (Z)-3-(4-((5-(4-Chloro-3-(cyclopropylcarbamoyl)phenyl)furan-2-yl)methylene)-3-methyl-5-oxo-4,5-dihydro-1H-pyrazol-1-yl)benzoic acid]
35 µM	CC1=NN(c2cccc(C(=O)O)c2)C(=O)C1=Cc1ccc(-c2ccc(Cl)c(C(=O)NCC3CCCCC3)c2)o1 (mixture of isomers) [NG-04-274, 3-(4-((5-(4-chloro-3-((cyclohexylmethyl)carbamoyl)phenyl)furan-2-yl)methylene)-3-methyl-5-oxo-4,5-dihydro-1H-pyrazol-1-yl)benzoic acid]
3 µM and 7.5 µM and 11 µM	COc1cccc(NC(=O)c2cc(-c3ccc(/C=C4\C(=O)N(c5cccc(C(=O)O)c5)N=C4C)s3)ccc2Cl)c1 [NG-03-203, (Z)-3-(4-((5-(4-chloro-3-((3-methoxyphenyl)carbamoyl)phenyl)thiophen-2-yl)methylene)-3-methyl-5-oxo-4,5-dihydro-1H-pyrazol-1-yl)benzoic acid]
> 50 µM	CCOC(=O)c1cccc(N2N=C(C(F)(F)F)C(=Cc3ccc(-c4ccc(Cl)c(C(=O)Nc5cccc(OC)c5)c4)o3)C2=O)c1 (mixture of isomers) [NG-04-311, ethyl 3-(4-((5-(4-chloro-3-((3-methoxyphenyl)carbamoyl)phenyl)furan-2-yl)methylene)-5-oxo-3-(trifluoromethyl)-4,5-dihydro-1H-pyrazol-1-yl)benzoate]
> 50 µM	O=C(O)c1cccc(N2N=C(C(F)(F)F)/C(=C/c3ccc(-c4ccc(Cl)c(C(=O)NCC5CC5)c4)o3)C2=O)c1 [NG-04-304, 3-(4-((5-(4-chloro-3-((cyclopropylmethyl)carbamoyl)phenyl)furan-2-yl)methylene)-5-oxo-3-(trifluoromethyl)-4,5-dihydro-1H-pyrazol-1-yl)benzoic acid]
15 µM and 35 µM	CC1=NN(c2ccc(C(=O)O)cc2)C(=O)C1Cc1ccc(-c2ccc(Cl)c(C(=O)NCc3ccc(F)cc3)c2)o1 (stereo not drawn) [NG-02-151, 4-(4-((5-(4-Chloro-3-((4-fluorobenzyl)carbamoyl)phenyl)furan-2-yl)methyl)-3-methyl-5-oxo-4,5-dihydro-1H-pyrazol-1-yl)benzoic acid]
12.5 µM	COc1cccc(NC(=O)c2cc(-c3ccc(CC4C(=O)N(c5cccc(C(=O)O)c5)N=C4C)s3)ccc2Cl)c1 (stereo not drawn) [NG-03-207, 3-(4-((5-(4-chloro-3-((3-Methoxyphenyl)carbamoyl)phenyl)thiophen-2-yl)methyl)-3-methyl-5-oxo-4,5-dihydro-1H-pyrazol-1-yl)benzoic acid]
